Data: ChEMBL document CHEMBL1671662, “In vitro activities of telavancin and six comparator agents against anaerobic bacterial isolates” (2009)
≈ marks a conversion by molar mass, not a printed value.

Columns and labels:
Format in all cases: functional
Parvimonas micra = assay: Antibacterial activity against Peptostreptococcus micros by CLSI M11-A6 agar dilution method
Ruminococcus gnavus = assay: Antibacterial activity against Ruminococcus gnavus by CLSI M11-A6 agar dilution method; settings: Mediterraneibacter gnavus
Clostridium leptum = assay: Antibacterial activity against Clostridium leptum by CLSI M11-A6 agar dilution method
Collinsella aerofaciens = assay: Antibacterial activity against Colinsella aerofaciens by CLSI M11-A6 agar dilution method
Hoylesella loescheii = assay: Antibacterial activity against Prevotella loescheii by CLSI M11-A6 agar dilution method
Clostridium beijerinckii = assay: Antibacterial activity against Clostridium beijerinckii by CLSI M11-A6 agar dilution method
Bacteroides ovatus = assay: Antibacterial activity against Bacteroides ovatus by CLSI M11-A6 agar dilution method
[1] = test system: Coprobacillus cateniformis; assay: Antibacterial activity against Coprobacillus cateniformis by CLSI M11-A6 agar dilution method
Clostridium hathewayi = assay: Antibacterial activity against Clostridium hathewayi by CLSI M11-A6 agar dilution method; settings: Hungatella hathewayi
[2] = test system: Sutterella wadsworthensis; assay: Antibacterial activity against Sutterella wadsworthensis by CLSI M11-A6 agar dilution method
Fusobacterium varium = assay: Antibacterial activity against Fusobacterium varium by CLSI M11-A6 agar dilution method
[3] = test system: Clostridium paraputrificum; assay: Antibacterial activity against Clostridium paraputrificum by CLSI M11-A6 agar dilution method
Odoribacter splanchnicus = assay: Antibacterial activity against Bacteroides splanchnicus by CLSI M11-A6 agar dilution method
Clostridium subterminale = assay: Antibacterial activity against Clostridium subterminale by CLSI M11-A6 agar dilution method
Blautia producta = assay: Antibacterial activity against Ruminococcus productus by CLSI M11-A6 agar dilution method
Prevotella nigrescens = assay: Antibacterial activity against Prevotella nigrescens by CLSI M11-A6 agar dilution method
Bilophila wadsworthia = assay: Antibacterial activity against Bilophila wadsworthia by CLSI M11-A6 agar dilution method
Clostridium glycolicum = assay: Antibacterial activity against Clostridium glycolicum by CLSI M11-A6 agar dilution method; settings: Terrisporobacter glycolicus
Prevotella corporis = assay: Antibacterial activity against Prevotella corporis by CLSI M11-A6 agar dilution method
Coriobacterium = assay: Antibacterial activity against […] by CLSI M11-A6 agar dilution method
Blautia luti = assay: Antibacterial activity against Ruminococcus luti by CLSI M11-A6 agar dilution method
Clostridioides difficile = assay: Antibacterial activity against Clostridium difficile by CLSI M11-A6 agar dilution method
Ruminococcus sp. = assay: Antibacterial activity against Ruminococcus sp. by CLSI M11-A6 agar dilution method
[4] = test system: Paeniclostridium sordellii; assay: Antibacterial activity against Clostridium sordellii by CLSI M11-A6 agar dilution method; settings: Paraclostridium sordellii
[5] = test system: Bacteroides thetaiotaomicron; assay: Antibacterial activity against Bacteroides thetaiotaomicron by CLSI M11-A6 agar dilution method
[6] = test system: Streptococcus intermedius; assay: Antibacterial activity against Streptococcus intermedius by CLSI M11-A6 agar dilution method
Ruminococcus obeum = assay: Antibacterial activity against Ruminococcus obeum by CLSI M11-A6 agar dilution method; settings: Blautia obeum
Clostridium butyricum = assay: Antibacterial activity against Clostridium butyricum by CLSI M11-A6 agar dilution method
[7] = test system: Parabacteroides distasonis; assay: Antibacterial activity against Parabacteroides distasonis by CLSI M11-A6 agar dilution method
[8] = test system: Clostridium celerecrescens; assay: Antibacterial activity against Clostridium celerecrescens by CLSI M11-A6 agar dilution method; settings: Lacrimispora celerecrescens
Prevotella bivia = assay: Antibacterial activity against Prevotella bivia by CLSI M11-A6 agar dilution method
Prevotella disiens = assay: Antibacterial activity against Prevotella P disiens by CLSI M11-A6 agar dilution method
Flavonifractor plautii = assay: Antibacterial activity against Clostridium orbiscindens by CLSI M11-A6 agar dilution method
Actinomyces naeslundii = assay: Antibacterial activity against Actinomyces naeslundii by CLSI M11-A6 agar dilution method
[9] = test system: Peptostreptococcus anaerobius; assay: Antibacterial activity against Peptostreptococcus anaerobius by CLSI M11-A6 agar dilution method
[10] = test system: Catenibacterium mitsuokai; assay: Antibacterial activity against Catenibacterium mitsuokai by CLSI M11-A6 agar dilution method
[11] = test system: Clostridium sporosphaeroides; assay: Antibacterial activity against Clostridium sporosphaeroides by CLSI M11-A6 agar dilution method; settings: Faecalispora sporosphaeroides
Ruminococcus lactaris = assay: Antibacterial activity against Ruminococcus lactaris by CLSI M11-A6 agar dilution method
Clostridium perfringens = assay: Antibacterial activity against Clostridium perfringens by CLSI M11-A6 agar dilution method
Parabacteroides merdae = assay: Antibacterial activity against Parabacteroides merdae by CLSI M11-A6 agar dilution method
Clostridium bolteae = assay: Antibacterial activity against Clostridium bolteae by CLSI M11-A6 agar dilution method; settings: Enterocloster bolteae
Clostridium sp. = assay: Antibacterial activity against Clostridium sp. by CLSI M11-A6 agar dilution method
Anaerococcus prevotii = assay: Antibacterial activity against Anaerococcus prevotii by CLSI M11-A6 agar dilution method

Compound: CCCCCCCCCC(=O)N[C@@H](Cc1c[nH]c2ccccc12)C(=O)N[C@H](CC(N)=O)C(=O)N[C@@H](CC(=O)O)C(=O)N[C@@H]1C(=O)NCC(=O)N[C@@H](CCCN)C(=O)N[C@@H](CC(=O)O)C(=O)N[C@H](C)C(=O)N[C@@H](CC(=O)O)C(=O)NCC(=O)N[C@H](CO)C(=O)N[C@@H]([C@H](C)CC(=O)O)C(=O)N[C@@H](CC(=O)c2ccccc2N)C(=O)O[C@@H]1C
- MIC50 (Parvimonas micra): 1 µg/mL (≈ 0.617 µM)
- MIC90 (Parvimonas micra): 4 µg/mL (≈ 2.47 µM)
- MIC50 (Ruminococcus gnavus): ≤ 0.12 µg/mL
- MIC90 (Ruminococcus gnavus): 0.25 µg/mL (≈ 0.154 µM)
- MIC50 (Clostridium leptum): 1 µg/mL (≈ 0.617 µM)
- MIC90 (Clostridium leptum): 8 µg/mL (≈ 4.94 µM)
- MIC50 (Collinsella aerofaciens): 1 µg/mL (≈ 0.617 µM)
- MIC90 (Collinsella aerofaciens): 32 µg/mL (≈ 19.7 µM)
- MIC (Hoylesella loescheii): > 128 µg/mL
- MIC50 (Hoylesella loescheii): > 128 µg/mL
- MIC90 (Hoylesella loescheii): > 128 µg/mL
- MIC50 (Clostridium beijerinckii): 1 µg/mL (≈ 0.617 µM)
- MIC90 (Clostridium beijerinckii): 8 µg/mL (≈ 4.94 µM)
- MIC (Bacteroides ovatus): > 128 µg/mL
- MIC50 (Bacteroides ovatus): > 128 µg/mL
- MIC90 (Bacteroides ovatus): > 128 µg/mL
- MIC50 [1]: 1 µg/mL (≈ 0.617 µM)
- MIC90 [1]: 32 µg/mL (≈ 19.7 µM)
- MIC50 (Clostridium hathewayi): 1 µg/mL (≈ 0.617 µM)
- MIC90 (Clostridium hathewayi): 2 µg/mL (≈ 1.23 µM)
- MIC [2]: > 128 µg/mL
- MIC50 [2]: > 128 µg/mL
- MIC90 [2]: > 128 µg/mL
- MIC (Fusobacterium varium): > 128 µg/mL
- MIC50 (Fusobacterium varium): > 128 µg/mL
- MIC90 (Fusobacterium varium): > 128 µg/mL
- MIC50 [3]: 1 µg/mL (≈ 0.617 µM)
- MIC90 [3]: 8 µg/mL (≈ 4.94 µM)
- MIC (Odoribacter splanchnicus): > 128 µg/mL
- MIC50 (Odoribacter splanchnicus): > 128 µg/mL
- MIC90 (Odoribacter splanchnicus): > 128 µg/mL
- MIC50 (Clostridium subterminale): 1 µg/mL (≈ 0.617 µM)
- MIC90 (Clostridium subterminale): 2 µg/mL (≈ 1.23 µM)
- MIC50 (Blautia producta): 1 µg/mL (≈ 0.617 µM)
- MIC90 (Blautia producta): 2 µg/mL (≈ 1.23 µM)
- MIC (Prevotella nigrescens): > 128 µg/mL
- MIC50 (Prevotella nigrescens): > 128 µg/mL
- MIC90 (Prevotella nigrescens): > 128 µg/mL
- MIC (Bilophila wadsworthia): > 128 µg/mL
- MIC50 (Bilophila wadsworthia): > 128 µg/mL
- MIC90 (Bilophila wadsworthia): > 128 µg/mL
- MIC50 (Clostridium glycolicum): 1 µg/mL (≈ 0.617 µM)
- MIC90 (Clostridium glycolicum): 8 µg/mL (≈ 4.94 µM)
- MIC (Prevotella corporis): > 128 µg/mL
- MIC50 (Prevotella corporis): > 128 µg/mL
- MIC90 (Prevotella corporis): > 128 µg/mL
- MIC50 (Coriobacterium): 1 µg/mL (≈ 0.617 µM)
- MIC90 (Coriobacterium): 32 µg/mL (≈ 19.7 µM)
- MIC50 (Blautia luti): 1 µg/mL (≈ 0.617 µM)
- MIC90 (Blautia luti): 2 µg/mL (≈ 1.23 µM)
- MIC50 (Clostridioides difficile): 0.5 µg/mL (≈ 0.309 µM)
- MIC90 (Clostridioides difficile): 1 µg/mL (≈ 0.617 µM)
- MIC50 (Ruminococcus sp.): 1 µg/mL (≈ 0.617 µM)
- MIC90 (Ruminococcus sp.): 4 µg/mL (≈ 2.47 µM)
- MIC50 [4]: 1 µg/mL (≈ 0.617 µM)
- MIC90 [4]: 8 µg/mL (≈ 4.94 µM)
- MIC [5]: > 128 µg/mL
- MIC50 [5]: > 128 µg/mL
- MIC90 [5]: > 128 µg/mL
- MIC50 [6]: 2 µg/mL (≈ 1.23 µM)
- MIC90 [6]: 4 µg/mL (≈ 2.47 µM)
- MIC50 (Ruminococcus obeum): 0.5 µg/mL (≈ 0.309 µM)
- MIC90 (Ruminococcus obeum): 0.5 µg/mL (≈ 0.309 µM)
- MIC50 (Clostridium butyricum): 1 µg/mL (≈ 0.617 µM)
- MIC90 (Clostridium butyricum): 8 µg/mL (≈ 4.94 µM)
- MIC [7]: > 128 µg/mL
- MIC50 [7]: > 128 µg/mL
- MIC90 [7]: > 128 µg/mL
- MIC50 [8]: 1 µg/mL (≈ 0.617 µM)
- MIC90 [8]: 8 µg/mL (≈ 4.94 µM)
- MIC (Prevotella bivia): > 128 µg/mL
- MIC50 (Prevotella bivia): > 128 µg/mL
- MIC90 (Prevotella bivia): > 128 µg/mL
- MIC (Prevotella disiens): > 128 µg/mL
- MIC50 (Prevotella disiens): > 128 µg/mL
- MIC90 (Prevotella disiens): > 128 µg/mL
- MIC50 (Flavonifractor plautii): 1 µg/mL (≈ 0.617 µM)
- MIC90 (Flavonifractor plautii): 8 µg/mL (≈ 4.94 µM)
- MIC50 (Actinomyces naeslundii): 1 µg/mL (≈ 0.617 µM)
- MIC90 (Actinomyces naeslundii): 32 µg/mL (≈ 19.7 µM)
- MIC50 [9]: 1 µg/mL (≈ 0.617 µM)
- MIC90 [9]: 4 µg/mL (≈ 2.47 µM)
- MIC50 [10]: 1 µg/mL (≈ 0.617 µM)
- MIC90 [10]: 32 µg/mL (≈ 19.7 µM)
- MIC50 [11]: 1 µg/mL (≈ 0.617 µM)
- MIC90 [11]: 8 µg/mL (≈ 4.94 µM)
- MIC50 (Ruminococcus lactaris): 1 µg/mL (≈ 0.617 µM)
- MIC90 (Ruminococcus lactaris): 2 µg/mL (≈ 1.23 µM)
- MIC50 (Clostridium perfringens): 0.5 µg/mL (≈ 0.309 µM)
- MIC90 (Clostridium perfringens): 1 µg/mL (≈ 0.617 µM)
- MIC (Parabacteroides merdae): > 128 µg/mL
- MIC50 (Parabacteroides merdae): > 128 µg/mL
- MIC90 (Parabacteroides merdae): > 128 µg/mL
- MIC50 (Clostridium bolteae): 4 µg/mL (≈ 2.47 µM)
- MIC90 (Clostridium bolteae): 4 µg/mL (≈ 2.47 µM)
- MIC50 (Clostridium sp.): 1 µg/mL (≈ 0.617 µM)
- MIC90 (Clostridium sp.): 8 µg/mL (≈ 4.94 µM)
- MIC50 (Anaerococcus prevotii): 1 µg/mL (≈ 0.617 µM)
- MIC90 (Anaerococcus prevotii): 4 µg/mL (≈ 2.47 µM)
